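Here, GI50 denotes the concentration required for 50% inhibition of growth. TGI marks complete inhibition of growth.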
Experiments:
Assay in all cases: inhibition of tumour cell growth, NCI panel, 384-well format
[1] = test system: HL-60(TB) leukemia
[2] = test system: SF-268 CNS
[3] = test system: SNB-75 CNS
[4] = test system: HOP-92 NSCLC
[5] = test system: KM12 colon
[6] = test system: OVCAR-8 ovarian
[7] = test system: SK-MEL-28 melanoma
[8] = test system: A498 renal
[9] = test system: NCI-H23 lung
[10] = test system: SK-MEL-5 melanoma
[11] = test system: RPMI-8226 leukemia
[12] = test system: NCI-H226 lung
[13] = test system: MOLT-4 leukemia
[14] = test system: NCI/ADR-RES ovarian
[15] = test system: EKVX NSCLC
[16] = test system: U251 glioblastoma
[17] = test system: SR leukemia
[18] = test system: SNB-19 CNS
[19] = test system: SF-539 CNS
[20] = test system: M14 melanoma
[21] = test system: BT-549 breast
[22] = test system: RXF 393 renal
[23] = test system: MDA-MB-468 breast
[24] = test system: UO-31 renal
[25] = test system: UACC-62 melanoma
[26] = test system: SK-OV-3 ovarian
[27] = test system: SW-620 colon
[28] = test system: NCI-H460 NSCLC
[29] = test system: MALME-3M melanoma
[30] = test system: IGROV1 ovarian
[31] = test system: TK-10 renal
[32] = test system: 786-0 renal
[33] = test system: HCT-15 colon
[34] = test system: OVCAR-5 ovarian
[35] = test system: SF-295 CNS
[36] = test system: MDA-MB-435 melanoma
[37] = test system: HS 578T breast
[38] = test system: OVCAR-4 ovarian
[39] = test system: A549 NSCLC
[40] = test system: PC-3 prostate
[41] = test system: SN12C renal
[42] = test system: HCT-116 colon
[43] = test system: MDA-MB-231 breast
[44] = test system: DU-145 prostate
[45] = test system: OVCAR-3 ovarian
[46] = test system: CAKI-1 renal
[47] = test system: NCI-H322M lung
[48] = test system: UACC-257 melanoma
[49] = test system: NCI-H522 lung
[50] = test system: LOX IMVI melanoma
[51] = test system: COLO 205 colon
[52] = test system: T-47D breast
[53] = test system: HOP-62 NSCLC
[54] = test system: ACHN renal
[55] = test system: MCF7 breast

Question: N#CC[C@H](C1CCCC1)n1cc(-c2ncnc3[nH]ccc23)cn1 was tested. Which GI50 [1] did it give?
Answer: 23.9 µM

Question: And the TGI [1]?
Answer: 38.8 µM

Question: What about the GI50 [2] of the same molecule?
Answer: 16.2 µM

Question: What about the TGI [2] of the same molecule?
Answer: 36.6 µM

Question: And the GI50 [3]?
Answer: 18.4 µM

Question: What about the TGI [3] of the same molecule?
Answer: 41.3 µM

Question: And the GI50 [4]?
Answer: 22.2 µM

Question: What about the TGI [4] of the same molecule?
Answer: 56.3 µM

Question: What about the GI50 [5] of the same molecule?
Answer: 4.07 µM

Question: What about the TGI [5] of the same molecule?
Answer: > 100 µM

Question: And the GI50 [6]?
Answer: 27.6 µM

Question: What about the TGI [6] of the same molecule?
Answer: 75.8 µM

Question: What about the GI50 [7] of the same molecule?
Answer: 23 µM

Question: What about the TGI [7] of the same molecule?
Answer: 55.7 µM

Question: What about the GI50 [8] of the same molecule?
Answer: 21.7 µM

Question: And the TGI [8]?
Answer: 41.6 µM

Question: And the GI50 [9]?
Answer: 17.1 µM

Question: What about the TGI [9] of the same molecule?
Answer: 32.8 µM

Question: What about the GI50 [10] of the same molecule?
Answer: 18.2 µM

Question: What about the TGI [10] of the same molecule?
Answer: 33.1 µM

Question: What about the GI50 [11] of the same molecule?
Answer: 19.4 µM

Question: And the TGI [11]?
Answer: 34.6 µM

Question: What about the GI50 [12] of the same molecule?
Answer: 5.75 µM

Question: What about the TGI [12] of the same molecule?
Answer: 25 µM

Question: And the GI50 [13]?
Answer: 18.3 µM

Question: What about the TGI [13] of the same molecule?
Answer: 46.1 µM

Question: And the GI50 [14]?
Answer: 23.4 µM

Question: What about the TGI [14] of the same molecule?
Answer: 50.3 µM

Question: And the GI50 [15]?
Answer: 20.9 µM

Question: What about the TGI [15] of the same molecule?
Answer: 66 µM

Question: And the GI50 [16]?
Answer: 28.4 µM

Question: What about the TGI [16] of the same molecule?
Answer: 71.8 µM

Question: And the GI50 [17]?
Answer: 8.31 µM

Question: What about the TGI [17] of the same molecule?
Answer: 20.6 µM

Question: What about the GI50 [18] of the same molecule?
Answer: 30.6 µM

Question: What about the TGI [18] of the same molecule?
Answer: 82.7 µM

Question: And the GI50 [19]?
Answer: 19.7 µM

Question: What about the TGI [19] of the same molecule?
Answer: 42 µM

Question: What about the GI50 [20] of the same molecule?
Answer: 27.2 µM

Question: What about the TGI [20] of the same molecule?
Answer: 50.9 µM

Question: And the GI50 [21]?
Answer: 19.8 µM

Question: What about the TGI [21] of the same molecule?
Answer: 34.6 µM

Question: What about the GI50 [22] of the same molecule?
Answer: 12.9 µM

Question: And the TGI [22]?
Answer: 30.4 µM

Question: And the GI50 [23]?
Answer: 23.2 µM

Question: What about the TGI [23] of the same molecule?
Answer: 53.5 µM

Question: And the GI50 [24]?
Answer: 18.1 µM

Question: And the TGI [24]?
Answer: 47.9 µM

Question: And the GI50 [25]?
Answer: 21.5 µM

Question: What about the TGI [25] of the same molecule?
Answer: 41.7 µM

Question: And the GI50 [26]?
Answer: 21 µM

Question: And the TGI [26]?
Answer: 45.9 µM

Question: What about the GI50 [27] of the same molecule?
Answer: 29.7 µM

Question: What about the TGI [27] of the same molecule?
Answer: > 100 µM

Question: What about the GI50 [28] of the same molecule?
Answer: 16 µM

Question: What about the TGI [28] of the same molecule?
Answer: 46.7 µM

Question: What about the GI50 [29] of the same molecule?
Answer: 19 µM

Question: And the TGI [29]?
Answer: 34.7 µM

Question: What about the GI50 [30] of the same molecule?
Answer: 22.7 µM

Question: What about the TGI [30] of the same molecule?
Answer: 84.4 µM

Question: What about the GI50 [31] of the same molecule?
Answer: 29 µM

Question: And the TGI [31]?
Answer: 89.6 µM

Question: And the GI50 [32]?
Answer: 17.4 µM

Question: And the TGI [32]?
Answer: 43.9 µM

Question: What about the GI50 [33] of the same molecule?
Answer: 26.2 µM

Question: What about the TGI [33] of the same molecule?
Answer: 82.1 µM

Question: And the GI50 [34]?
Answer: 23.5 µM

Question: And the TGI [34]?
Answer: 48.7 µM

Question: And the GI50 [35]?
Answer: 18.3 µM

Question: And the TGI [35]?
Answer: 37.9 µM

Question: And the GI50 [36]?
Answer: 26.6 µM

Question: And the TGI [36]?
Answer: 66.5 µM

Question: What about the GI50 [37] of the same molecule?
Answer: 12.4 µM

Question: What about the TGI [37] of the same molecule?
Answer: 26 µM

Question: And the GI50 [38]?
Answer: 29 µM

Question: And the TGI [38]?
Answer: 51.2 µM

Question: What about the GI50 [39] of the same molecule?
Answer: 18.3 µM

Question: And the TGI [39]?
Answer: 52.6 µM

Question: What about the GI50 [40] of the same molecule?
Answer: 25.7 µM

Question: And the TGI [40]?
Answer: 58.1 µM

Question: And the GI50 [41]?
Answer: 18.7 µM

Question: What about the TGI [41] of the same molecule?
Answer: 49.7 µM

Question: What about the GI50 [42] of the same molecule?
Answer: 23.5 µM

Question: And the TGI [42]?
Answer: 63.4 µM

Question: What about the GI50 [43] of the same molecule?
Answer: 16.4 µM

Question: And the TGI [43]?
Answer: 40.3 µM

Question: And the GI50 [44]?
Answer: 16 µM

Question: What about the TGI [44] of the same molecule?
Answer: 42.1 µM

Question: What about the GI50 [45] of the same molecule?
Answer: 25.8 µM

Question: And the TGI [45]?
Answer: 51.8 µM

Question: What about the GI50 [46] of the same molecule?
Answer: 21.3 µM

Question: And the TGI [46]?
Answer: 50.5 µM

Question: What about the GI50 [47] of the same molecule?
Answer: 26.3 µM

Question: What about the TGI [47] of the same molecule?
Answer: 58.7 µM

Question: What about the GI50 [48] of the same molecule?
Answer: 25.9 µM

Question: What about the TGI [48] of the same molecule?
Answer: 68.5 µM

Question: What about the GI50 [49] of the same molecule?
Answer: 13.6 µM

Question: And the TGI [49]?
Answer: 29.5 µM

Question: And the GI50 [50]?
Answer: 19.1 µM

Question: What about the TGI [50] of the same molecule?
Answer: 35.8 µM

Question: And the GI50 [51]?
Answer: 24.7 µM

Question: What about the TGI [51] of the same molecule?
Answer: 53.1 µM

Question: What about the GI50 [52] of the same molecule?
Answer: 19.5 µM

Question: What about the TGI [52] of the same molecule?
Answer: 63.9 µM

Question: What about the GI50 [53] of the same molecule?
Answer: 18.7 µM

Question: And the TGI [53]?
Answer: 37.1 µM

Question: What about the GI50 [54] of the same molecule?
Answer: 21.1 µM

Question: And the TGI [54]?
Answer: 50.9 µM

Question: And the GI50 [55]?
Answer: 25.9 µM

Question: What about the TGI [55] of the same molecule?
Answer: 77.7 µM
